Assay results taken from patent US8461328B2, “Tricyclic heterocyclic compounds, compositions and methods of use thereof” (Genentech, Inc., priority 2010, dated 2013).

Legend:
Assay type in all cases: biochemical
[1] = target: T1, JAK1 (Homo sapiens, UniProt P23458); experiment: JAK1 inhibition (Table 4); conditions: read-out: JAK1 Ki
T1 construct: made in house; host or cells: SF9 insect cells (baculovirus)

[2] = target: T2, JAK2 (Homo sapiens, UniProt O60674); experiment: JAK2 inhibition (Table 4); conditions: read-out: JAK2 Ki
T2 construct: made in house; host or cells: SF9 insect cells (baculovirus)
T2 sequence (O60674 812-1132): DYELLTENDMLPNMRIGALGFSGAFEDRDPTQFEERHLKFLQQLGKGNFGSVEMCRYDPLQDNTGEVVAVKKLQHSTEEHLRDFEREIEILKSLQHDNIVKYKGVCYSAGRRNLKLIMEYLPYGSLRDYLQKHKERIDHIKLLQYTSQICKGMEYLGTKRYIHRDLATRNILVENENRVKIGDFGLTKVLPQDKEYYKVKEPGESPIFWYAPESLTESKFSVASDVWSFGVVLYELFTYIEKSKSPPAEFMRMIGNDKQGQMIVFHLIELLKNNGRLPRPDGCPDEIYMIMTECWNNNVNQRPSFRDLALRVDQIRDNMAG

[3] = target: T3, JAK3 (Homo sapiens, UniProt P52333); experiment: JAK3 inhibition (Table 4); conditions: read-out: JAK3 Ki
T3 construct: made in house; host or cells: SF9 insect cells (baculovirus)
T3 sequence (P52333 783-1124): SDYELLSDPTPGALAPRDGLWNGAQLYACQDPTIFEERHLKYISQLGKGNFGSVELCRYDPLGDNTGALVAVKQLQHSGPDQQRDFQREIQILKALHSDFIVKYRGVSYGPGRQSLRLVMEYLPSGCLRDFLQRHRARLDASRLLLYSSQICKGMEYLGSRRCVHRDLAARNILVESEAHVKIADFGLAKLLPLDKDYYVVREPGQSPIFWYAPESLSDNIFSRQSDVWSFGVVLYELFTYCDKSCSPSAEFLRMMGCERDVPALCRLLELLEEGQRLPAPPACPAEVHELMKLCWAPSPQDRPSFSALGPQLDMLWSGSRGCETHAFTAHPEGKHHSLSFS

[4] = target: T4, TYK2 (Homo sapiens, UniProt P29597); experiment: TYK2 inhibition (Table 4)
T4 construct: made in house; host or cells: SF9 insect cells (baculovirus)
T4 sequence (P29597 873-1187): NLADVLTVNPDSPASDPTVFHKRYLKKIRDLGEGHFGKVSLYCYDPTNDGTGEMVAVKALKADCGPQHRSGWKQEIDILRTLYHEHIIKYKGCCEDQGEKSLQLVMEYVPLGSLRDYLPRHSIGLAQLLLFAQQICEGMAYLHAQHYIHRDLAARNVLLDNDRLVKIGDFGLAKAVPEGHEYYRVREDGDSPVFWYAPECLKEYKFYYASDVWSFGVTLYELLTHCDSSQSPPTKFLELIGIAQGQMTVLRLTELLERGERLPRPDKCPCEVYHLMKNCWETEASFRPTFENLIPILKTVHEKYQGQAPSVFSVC

T1 sequence (P23458 852-1154): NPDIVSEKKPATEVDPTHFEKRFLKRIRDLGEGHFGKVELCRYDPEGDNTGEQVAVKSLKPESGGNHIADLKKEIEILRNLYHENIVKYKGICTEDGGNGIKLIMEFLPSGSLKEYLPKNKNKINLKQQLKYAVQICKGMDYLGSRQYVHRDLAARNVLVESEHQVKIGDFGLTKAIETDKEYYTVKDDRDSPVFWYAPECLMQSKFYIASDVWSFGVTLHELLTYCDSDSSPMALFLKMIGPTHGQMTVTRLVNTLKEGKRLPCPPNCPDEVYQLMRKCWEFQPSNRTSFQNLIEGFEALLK

SMILES	Ki [1] [nM]	Ki [2] [nM]	Ki [3] [nM]	Ki [4] [nM]
CC1CC1COCc1nc2cnc3[nH]ccc3c2n1C1CCN(CCC#N)CC1 (centres unmarked) [Example 841, 3-{4-[2-(2-Methyl-cyclopropylmethoxymethyl)-6H-1,3,5,6-tetraaza-as-indacen-1-yl]-piperidin-1-yl}-propionitrile]	66.5	109	147	771
Cc1nc2cnc3[nH]ccc3c2n1C1CC2CCC1O2 (stereo not drawn) [Example 845, exo-2-Methyl-1-(7-oxa-bicyclo[2.2.1]hept-2-yl)-1,6-dihydro-1,3,5,6-tetraaza-as-indacene]	4.17	13.9	52.3	28.8
CC(O)c1nc2cnc3[nH]ccc3c2n1C1CC2CCC1O2 (stereo not drawn) [Example 848, endo-1-[1-(7-Oxa-bicyclo[2.2.1]hept-2-yl)-1,6-dihydro-1,3,5,6-tetraaza-as-indacen-2-yl]-ethanol]	120	156	71.9	216
CS(=O)(=O)NCCc1nc2cnc3[nH]ccc3c2n1[C@H]1CCCOC1 [Example 854, (S)—N-{2-[1-(Tetrahydro-pyran-3-yl)-1,6-dihydro-1,3,5,6-tetraaza-as-indacen-2-yl]-ethyl}-methanesulfonamide]	4.01	77.1	195	138
CC(=O)NCCc1nc2cnc3[nH]ccc3c2n1[C@H]1CCCOC1 [Example 856, (S)—N-{2-[1-(Tetrahydro-pyran-3-yl)-1,6-dihydro-1,3,5,6-tetraaza-as-indacen-2-yl]-ethyl}-acetamide]	5.96	121	276	259
O=C(NCCc1nc2cnc3[nH]ccc3c2n1[C@H]1CCCOC1)C1CC1 [Example 857, (S)-Cyclopropanecarboxylic acid {2-[1-(tetrahydro-pyran-3-yl)-1,6-dihydro-1,3,5,6-tetraaza-as-indacen-2-yl]-ethyl}-amide]	6.23	213	525	364
CS(=O)(=O)NCCc1nc2cnc3[nH]ccc3c2n1[C@@H]1CCCOC1 [Example 862, (R)—N-{2-[1-(Tetrahydro-pyran-3-yl)-1,6-dihydro-1,3,5,6-tetraaza-as-indacen-2-yl]-ethyl}-methanesulfonamide]	49.5	437	445	994
O=C(NCCc1nc2cnc3[nH]ccc3c2n1[C@@H]1CCCOC1)C1CC1 [Example 863, (R)-Cyclopropanecarboxylic acid {2-[1-(tetrahydro-pyran-3-yl)-1,6-dihydro-1,3,5,6-tetraaza-as-indacen-2-yl]-ethyl}-amide]	67.2	828	1240	2020
CC(=O)NCCc1nc2cnc3[nH]ccc3c2n1[C@@H]1CCCOC1 [Example 865, (R)—N-{2-[1-(Tetrahydro-pyran-3-yl)-1,6-dihydro-1,3,5,6-tetraaza-as-indacen-2-yl]-ethyl}-acetamide]	87.8	566	717	1270
C[C@@H](O)c1nc2cnc3[nH]ccc3c2n1C1CCCC1 [Example 867, (R)-1-(1-Cyclopentyl-1,6-dihydro-1,3,5,6-tetraaza-as-indacen-2-yl)-ethanol]	3.58	96.5	119	26.6
C#CCCN1CCC(n2c([C@@H](C)O)nc3cnc4[nH]ccc4c32)CC1 [Example 871, (R)-1-[1-(1-But-3-ynyl-piperidin-4-yl)-1,6-dihydro-1,3,5,6-tetraaza-as-indacen-2-yl]-ethanol]	59.7	290	177	1170
C[C@@H](O)c1nc2cnc3[nH]ccc3c2n1C1CCN(CCF)CC1 [Example 873, (R)-1-{1-[1-(2-Fluoro-ethyl)-piperidin-4-yl]-1,6-dihydro-1,3,5,6-tetraaza-as-indacen-2-yl}-ethanol]	20.7	124	72.7	422
O[C@@H](c1nc2cnc3[nH]ccc3c2n1C1CCCCC1)C(F)(F)F [Example 878, (S)-1-(1-Cyclohexyl-1,6-dihydro-1,3,5,6-tetraaza-as-indacen-2-yl)-2,2,2-trifluoro-ethanol]	1.8	43.7	13.6	11.8
C[C@@H](O)c1nc2cnc3[nH]ccc3c2n1N1CCCCC1 [Example 882, (R)-1-(1-Piperidin-1-yl-1,6-dihydro-1,3,5,6-tetraaza-as-indacen-2-yl)-ethanol]	3.56	51.6	72.6	10.6
CC(C)CC(=O)NC1CCC(n2nnc3cnc4[nH]ccc4c32)CC1 (centres unmarked) [Example 883, 3-Methyl-N-[4-(6H-1,2,3,5,6-pentaaza-as-indacen-1-yl)-cyclohexyl]-butyramide]	4.61	15.8	89.3	244
Cc1nc2cnc3[nH]ccc3c2n1[C@@H]1CCCC(=O)C1 [Example 885, (R)-3-(2-Methyl-6H-1,3,5,6-tetraaza-as-indacen-1-yl)-cyclohexanone]	6.16	23.8	47.8	33
Cc1nc2cnc3[nH]ccc3c2n1[C@H]1CCC[C@](C)(O)C1 [Example 886, (1S,3S)-1-Methyl-3-(2-methyl-6H-1,3,5,6-tetraaza-as-indacen-1-yl)-cyclohexanol]	10.3	16.7	41.7	52.8
COCC(=O)NC1CCC(n2cnc3cnc4[nH]ccc4c32)CC1 (centres unmarked) [Example 887, 2-Methoxy-N-[4-(6H-1,3,5,6-tetraaza-as-indacen-1-yl)-cyclohexyl]-acetamide]	11.1	23.9	193	79
Cc1nc2cnc3[nH]ccc3c2n1[C@H]1CCC[C@@](C)(O)C1 [Example 888, (1R,3S)-1-Methyl-3-(2-methyl-6H-1,3,5,6-tetraaza-as-indacen-1-yl)-cyclohexanol]	12.8	17.7	14	40.9

Other lines, results leading:

Ki [1] [nM]	Ki [2] [nM]	Ki [3] [nM]	Ki [4] [nM]	SMILES
81	171	236	905	CC(C)OCc1nc2cnc3[nH]ccc3c2n1C1CCN(CCC#N)CC1 [Example 842, 3-[4-(2-Isopropoxymethyl-6H-1,3,5,6-tetraaza-as-indacen-1-yl)-piperidin-1-yl]-propionitrile]
84.2	80.8	169	631	CC(C)OCCOCc1nc2cnc3[nH]ccc3c2n1C1CCN(CCC#N)CC1 [Example 843, 3-{4-[2-(2-Isopropoxy-ethoxymethyl)-6H-1,3,5,6-tetraaza-as-indacen-1-yl]-piperidin-1-yl}-propionitrile]
97.1	177	169	732	N#CCCN1CCC(n2c(COC3CCCC3)nc3cnc4[nH]ccc4c32)CC1 [Example 844, 3-[4-(2-Cyclopentyloxymethyl-6H-1,3,5,6-tetraaza-as-indacen-1-yl)-piperidin-1-yl]-propionitrile]
10.1	53	107	68.4	OCCc1nc2cnc3[nH]ccc3c2n1[C@H]1CCCOC1 [Example 859, (S)-2-[1-(Tetrahydro-pyran-3-yl)-1,6-dihydro-1,3,5,6-tetraaza-as-indacen-2-yl]-ethanol]
39.4	205	1670	602	C[C@@H](O)c1nc2cnc3[nH]ccc3c2n1C1CCN(C2(CC#N)COC2)CC1 [Example 861, (3-{4-[2-((R)-1-Hydroxy-ethyl)-6H-1,3,5,6-tetraaza-as-indacen-1-yl]-piperidin-1-yl}-oxetan-3-yl)-acetonitrile]
71.7	235	305	286	OCCc1nc2cnc3[nH]ccc3c2n1[C@@H]1CCCOC1 [Example 864, (R)-2-[1-(Tetrahydro-pyran-3-yl)-1,6-dihydro-1,3,5,6-tetraaza-as-indacen-2-yl]-ethanol]
7.07	148	119	149	CCN1CC[C@@H](n2c([C@@H](C)O)nc3cnc4[nH]ccc4c32)[C@@H](F)C1 [Example 868, (R)-1-[1-((3S,4R)-1-Ethyl-3-fluoro-piperidin-4-yl)-1,6-dihydro-1,3,5,6-tetraaza-as-indacen-2-yl]-ethanol]
1.69	37.8	10.6	10.9	C[C@@H](O)c1nc2cnc3[nH]ccc3c2n1C1CCNCC1F (stereo partly drawn) [Example 877, (R)-1-[1-(3-Fluoro-piperidin-4-yl)-1,6-dihydro-1,3,5,6-tetraaza-as-indacen-2-yl]-ethanol]
26.4	280	90.6	59.7	C[C@@H](O)c1nc2cnc3[nH]ccc3c2n1C1CCOCC1 [Example 881, (R)-1-[1-(Tetrahydro-pyran-4-yl)-1,6-dihydro-1,3,5,6-tetraaza-as-indacen-2-yl]-ethanol]
5.17	6.39	86.3	44	O=C(NC1CCC(n2cnc3cnc4[nH]ccc4c32)CC1)c1cccnc1 (centres unmarked) [Example 884, N-[4-(6H-1,3,5,6-Tetraaza-as-indacen-1-yl)-cyclohexyl]-nicotinamide]
